Assay results as given in patent publication US11987600B2, “Contraceptive use of triterpenoids” (The Regents of the University of California, priority 2017, dated 2024).

What was measured:
human sperm [1] = test: Sperm hyperactivation: curvilinear velocity (VCL) of human sperm; format: cell-based; conditions: for change (increase) of VCL / reduction of VCL values in comparison to VCL in the presence of P4: capacitated spermatozoa; for change (increase) of VCL: compound alone; for decrease of VCL compared to sperm treated with PregS alone: capacitated sperm; for reduction of VCL values in comparison to VCL in the presence of P4: stimulated with P4 + compound
Text: (§1) Pristimerin and lupeol decrease sperm hyperactivation in the presence of P4. Hyperactivated sperm motility is characterized by a highly asymmetrical bending of the sperm tail due to a CatSper-mediated rise in flagellar calcium concentration (15). Curvilinear velocity (VCL) is the average velocity of the sperm head through the sperm trajectory, which increases during capacitation. A CatSper-mediated calcium rise promotes hyperactivation and makes the sperm trajectory less linear, which results in an increase of VCL. Capacitation increases CatSper activity, which results in a higher percentage of sperm with hyperactivated motility. Thus, capacitated spermatozoa tend to have higher VCL values than non-capacitated. Since both P4 and PregS activate CatSper, while pristimerin and lupeol inhibit it, we explored whether VCL values of human sperm are affected in the presence of plant triterpenoids or steroid hormones. As expected, neither of the compounds changed VCL values of non-capacitated sperm cells. […] Stimulating capacitated sperm with PregS in combination with pristimerin or lupeol decreased VCL by 18% and 9%, respectively, compared to sperm, which were treated with PregS alone. […] Since CatSper is not only required for hyperactivation but also for basal motility, we sought to determine whether pristimerin and lupeol also affect sperm motility.

CatSper [2] = test: Activity of steroids and modified steroids on CatSper activation (method not described); format: cell-based, human; conditions: for effect on CatSper activation: competing with progesterone; for activity relative to progesterone: effect of position 11 versus position 3 modification
CatSper [3] = test: Electrophysiology recordings of inward monovalent currents through CatSper (ICatSper) of human sperm; format: cell-based; conditions: for reduction of ICatSper stimulation compared to stimulation with P4 alone: co-application with P4, human spermatozoa; for reduction of ICatSper stimulation compared to stimulation with PregS alone: co-application with PregS
Text: 2-AG hydrolysis by monoacyl lipases, such as ABHD2, is required for CatSper activation. The plant triterpenoid pristimerin was reported to inhibit the activity of related monoacylglycerol lipase (MAGL) (9). […] To test this hypothesis, human spermatozoa were stimulated with pristimerin, followed by exposure to either a mixture of pristimerin and P4, or to a mixture of pristimerin and PregS. In these experiments we analyzed inward monovalent currents through CatSper (ICatSper) of human sperm. Electrophysiology recordings were performed as described in (14). […] Compared to stimulation with P4 or PregS alone, the ICatSper stimulation was reduced by 63% (pristimerin and P4) and by 48% (pristimerin and PregS) (7).
Another pharmacologically active plant triterpenoid, which affects sperm functions when orally administered to rats, is lupeol (8). Lupeol is similar in structure to steroid hormones. […] However, administration of lupeol with P4 or PregS led to an even stronger inhibition of ICatSper than pristimerin. Compared to CatSper stimulation elicited by P4 or PregS alone, CatSper currents were reduced by 71% and 68%, respectively, in combination with P4 or PregS (7).

human sperm [4] = test: Sperm motility: number/percentage of motile spermatozoa; format: cell-based; conditions: for decrease of percentage of motile sperm: capacitated sperm
Text: as §1

rats = conditions: orally administered to rats; cited from earlier work
[5] = PregS in combination with compound

In the case of `CC(=O)[C@H]1CC[C@H]2[C@@H]3CCC4=CC(=O)CC[C@]4(C)[C@H]3CC[C@]12C` [P4, progesterone, reference compound], the “change (increase) of VCL” value (human sperm [1]) is reported as 12%.

For estrogen, the “effect on CatSper activation” value (CatSper [2]) was “impair CatSper activation”.

For `C[C@]12CCC(=O)C=C1CC[C@@H]1[C@@H]2[C@@H](O)C[C@@]2(C)[C@H]1CC[C@]2(O)C(=O)CO` [cortisol], the “effect on CatSper activation” value (CatSper [2]) was “impair CatSper activation”.

In the case of `COC(=O)[C@]1(C)CC[C@]2(C)CC[C@]3(C)C4=CC=C5C(=CC(=O)C(O)=C5C)[C@]4(C)CC[C@@]3(C)[C@@H]2C1` [pristimerin], the “reduction of ICatSper stimulation compared to stimulation with P4 alone” value (CatSper [3]) is reported as 63%, the “reduction of ICatSper stimulation compared to stimulation with PregS alone” value (CatSper [3]; human spermatozoa) is reported as 48% and the “decrease of VCL compared to sperm treated with PregS alone” value (human sperm [1]; [5]) is reported as 18%. For the same compound, the “reduction of VCL values in comparison to VCL in the presence of P4” value (human sperm [1]) was 39% and the “decrease of percentage of motile sperm” value (human sperm [4]; P4 co-applied with compound) was 19%.

With “pregnenolone sulfate [PregS, reference compound]” the “change (increase) of VCL” value (human sperm [1]) was “remained unchanged”.

In the case of `CC#C[C@]1(O)CC[C@H]2[C@@H]3CCC4=CC(=O)CCC4=C3[C@@H](c3ccc(N(C)C)cc3)C[C@@]21C` [RU-486, mifepristione], the “activity relative to progesterone” value (CatSper [2]) is reported as “inactive”.

With `C=C(C)[C@@H]1CC[C@]2(C)CC[C@]3(C)[C@H](CC[C@@H]4[C@@]5(C)CC[C@H](O)C(C)(C)[C@@H]5CC[C@]43C)[C@@H]12` [lupeol] the “reduction of ICatSper stimulation compared to stimulation with P4 alone” value (CatSper [3]) was 71%, the “reduction of ICatSper stimulation compared to stimulation with PregS alone” value (CatSper [3]; human spermatozoa) was 68% and the “effect on basal ICatSper” value (CatSper [3]; compound alone, human spermatozoa) was “did not affect basal ICatSper”. For the same compound, the “decrease of VCL compared to sperm treated with PregS alone” value (human sperm [1]; [5]) was 9%, the “change (increase) of VCL” value (human sperm [1]) was “remained unchanged” and the “reduction of VCL values in comparison to VCL in the presence of P4” value (human sperm [1]) was 48%. The “change of VCL values” (human sperm [1]; non-capacitated sperm, PregS in combination with compound) was “remained unchanged”, the “change in number of motile spermatozoa” value (human sperm [4]; capacitated and non-capacitated, compound alone) was “remained unchanged” and the “reduction of motile sperm” value (human sperm [4]; capacitated or non-capacitated sperm, co-stimulation with PregS) was “did not result in a significant reduction”. For the same compound, the “decrease of percentage of motile sperm” value (human sperm [4]; P4 co-applied with compound) was 19%, the “change of percentage of motile sperm” value (human sperm [4]; non-capacitated cells, P4 co-applied with compound) was “did not change” and the antifertility properties (rats) was “antifertility properties”.

For progesterone-11-biotin, the “activity relative to progesterone” value (CatSper [2]) was “inactive”.

With progesterone-11-BSA the “activity relative to progesterone” value (CatSper [2]) was “inactive”.

With `C[C@]12CC[C@H]3[C@@H](CCC4=CC(=O)CC[C@@]43C)[C@@H]1CC[C@@H]2O` [testosterone] the “effect on CatSper activation” value (CatSper [2]) was “impair CatSper activation”.

With progesterone-3-biotin the “activity relative to progesterone” value (CatSper [2]) was “as active as progesterone”.

For progesterone-3-BSA, the “activity relative to progesterone” value (CatSper [2]) was “as active as progesterone”.
